# From US20060153844A1, “Methods to trigger, maintain and manipulate immune responses by targeted administration of biological response modifiers into lymphoid organs” (priority 2004, published 2006)
# Entries after “also recorded” stand apart in the source; their conditions may differ.
# Key:
# CD8+ T cell population = assay: tetramer and CD8 double staining after intranodal Melan-A peptide plus BRM; assay type: in vivo; conditions: for immune response by tetramer staining: intranodal Melan-A peptide alone, plus 0.1 nmole CpG ODN or plus 25 μg polyI:C, days 0, 3, 14 and 17
# Description: H-2 class I-negative, HLA-A2.1-transgenic (HHD-1) mice (Pascolo, S., et al., J Exp Med. 185:2043-2051, 1997 (which is incorporated herein in its entirety)) were housed under pathogen-free conditions and used for evaluation of the immunogenicity of HLA-A2.1-restricted human tumor-associated cytotoxic T lymphocyte (CTL) epitopes. Female mice 8-12 weeks of age were used for intralymphatic immunization and for isolation of splenocytes for in vivo cytotoxicity studies. […] A total of four rounds of injections were given, on days 0, 3, 14 and 17.
# The immune response was measured by tetramer and CD8 double staining of splenocytes from the immunized mice. Mononuclear cells isolated from peripheral blood after density centrifugation (Lympholyte Mammal, Cedarlane Labs) with HLA-A*0201 MART1 (SEQ. ID. No. 3)-PE MHC tetramer (Beckman Coulter) and FITC conjugated rat anti-mouse CD8a (Ly-2) monoclonal antibody (BD Biosciences). Data was collected using a BD FACS Calibur flow cytometer and analysed using Cellquest software by gating on the lymphocyte population and calculating the percent of tetramer^+ cells within the CD8^+ CTL population. The results (see FIG. 5) were expressed as means±SEM of % tetramer stained cells within the CD8+ T cell population (A), and with specific dot plot plots representative for each group (B). Splenocytes from naive transgenic mice were included as controls.
# splenocytes = assay: IFN-γ, IL-4 and IL-10 secretion of splenocytes cultured with PLA2 (ELISA); assay type: in vivo, CBA/J mice; conditions: for IFN-γ secreted (ELISA): versus LPS or 3M003 P<0.01
# Method: (§1) Two weeks later spleen cells were isolated, and analysed directly for intracellular IFN-γ by flow cytometry (FIG. 11) or analyzed for IFN-γ, IL-4 and IL-10 secretion by ELISA after four days cultivation with 10 μg/ml PLA2 (FIG. 12). For FIG. 11, intracellular IFN-γ was measured by flow cytometry after four hours stimulation of cells with PdBu and ionomycin (both at 500 ng/ml) in the presence of brefeldin A (10 μg/ml). The cells were then incubated with anti-CD16/CD32 for Fc-recptor blocking and stained on ice and in PBS/FCS 2% with fluorescent-labelled Abs against CD4, CD8 and CD44 (all Abs from BD Biosciences (Franklin Lakes, N.J.). Cells were subsequently fixed with 4% paraformaldehyde and permeabilised with 0.1% Nonidet P-40 before staining with Ab against IFN-γ. Four-color cytometry were performed on a FACSCalibur flow cytometer (BD Biosciences, San Jose, Calif.). Cells were gated on CD4 or CD8 positive lymphocytes and the results expressed as means (±S.D.) for three mice, as percent of T-cell subset (A) or as absolute numbers in the spleen (B). One representative out of two immunization experiments is shown. For FIG. 12, after homogenisation of spleens and lysis of red blood cells, 5×10^5 splenocytes were cultured with 20 μg/ml PLA2 protein in 200 μl IMDM (Gibco) supplemented with L-glutamine (4 mM), FCS (10%), mercaptoethanol (75 μM), as well as streptomycin and ampicillin. Supernatants were collected after 96 hours incubation and IL-4, IL-10 and IFN-γ concentrations determined by ELISA from R&D Systems (Abingdon, United Kingdom). Cytokine concentrations in supernatants as determined by ELISA after subtraction of spontaneous cytokine secretion was determined upon in vitro stimulation with an irrelevant antigen (ovalbumin). Statistical differences between the different groups were indicated when significant (P<0.01). One representative out of two immunization experiments is shown.
# [1] = system: ^51Cr-labeled target cells (T2 cells); assay: standard cytotoxic assay after intranodal peptide plus polyI:C; assay type: in vivo, HHD-A2 transgenic mice; conditions: 12.5 μg peptide+12.5 μg polyI:C per inguinal lymph node, day 0, 3, 14 and 17; targets pulsed with peptide or tumor cells
# Method: HHD-A2 transgenic mice (n=4/group) were immunized with various peptides (see Table 1) admixed with polyI:C, by direct inoculation into the inguinal lymph nodes (12.5 μg peptide+12.5 μg of adjuvant, in 25 μl of PBS/each inguinal lymph node at day 0, 3, 14 and 17). One week after the final administration, splenocytes were stimulated ex vivo with 10 μg/ml of peptide in presence of 5 U/ml of rIL-2 and tested in a standard cytotoxic assay, against ^51Cr-labeled target cells (T2 cells) uncoated or coated with cognate peptide, at various Effector:Target ratios. Alternatively, in the case of PSMA 288-297 epitope, cytotoxicity was measured against PSMA expressing human tumor cells (LNCap) cells coated or not with 10 μg/ml of MHC class I blocking antibody (W6/32). Cytotoxicity resulting from immunization with the NY-ESO-1 157-165 epitope was also assessed against 624.28 and 624.38 cells that had been transformed to express a GFP/NY-ESO-1 fusion protein.
# [2] = system: PLA2-specific IgG2a and IgG1 antibodies; assay: anti-PLA2 IgG2a, IgG1 and IgE in sera after intralymphatic PLA2 plus TLR ligand; assay type: in vivo, CBA/J mice; conditions: for kinetics of the antibody production (time of maximum titers): i.ln. with 0.1 μg PLA2, sera over 13 weeks; for anti-PLA2 antibody isotypes induced (IgG2a, IgG1): i.ln. with 0.1 μg PLA2, three injections; for sero-conversion: seven weeks after the first and three weeks after last injection, i.ln. with 0.1 μg PLA2
# Method: The compounds were mixed within an hour before injection into the inguinal lymph node.
# The sera were obtained over 13 weeks and analyzed by ELISA for anti-PLA2 IgG2a (FIG. 10A) and IgG1 (FIG. 10B). The ratio of IgG2a to IgG1 titers was calculated as a measure for Th1/Th2 immune response balance (FIG. 10C). […] Pre-immunization levels of anti-PLA2 antibodies were measured on sera from five mice taken the day before first injection.
# [3] = system: Human melanoma tumor target cells, 624.38 (Melan-A^+, HLA-A2^+); assay: in vivo clearance of human melanoma tumor cells from pulmonary tissue; design: species or system HHD-1 mice; conditions: mice immunized intranodally as in Example 4, challenged i.v. with 624.38 cells
# Method: The effectiveness of CTL generated as described in Example 4 was assessed as in vivo clearance of tumor cells from pulmonary tissue in mice challenged with Melan-A^+ tumor cells. Human melanoma tumor target cells, 624.38 (Melan-A^+, HLA-A2^+) were cultured in RPMI medium supplemented with 10% fetal bovine serum (Hyclone), 0.1 mM non-essential amino acids, and 0.3 mg/mL L-glutamine in a 5% CO2 incubator at 37° C. The HLA-A2^− subclone, 624.28, was grown under the same conditions and served as a negative control. Specific targets were prepared by incubating 10^8 624.38 cells with 2.5 μM CFSE in PBS for 20 minutes (CFSE^hi) and 10^8 HLA-A2^−, 624.28 target controls were labelled with 0.25 μM CFSE (CFSE^lo). Each immunized HHD-1 mouse was intravenously injected in the tail vein with a mixture of 10^7 CFSE^hi 624.38 and 10^7 CFSE^lo 624.28 cells followed by an identical injection 3 hours later. Un-immunized HHD-1 mice were also injected and served as naïve controls. […] The mononuclear cells were then isolated by density centrifugation and CFSE positive cells were analysed by FACS. The in vivo specific lysis of human melanoma target cells in the lung was calculated by the following formula: [(1−% CFSE^hi/% CFSE^lo)−(1−% CFSE^hiControl/% CFSE^loControl)]
# [4] = of the 17 patients receiving IL-12 in the phase II study; cited from earlier work
# [5] = system: CD4 or CD8 positive lymphocytes; assay: intracellular IFN-γ in spleen CD4 and CD8 T cells by flow cytometry; assay type: in vivo, CBA/J mice; conditions: two weeks after further boost of PLA2 and adjuvant; percentage and absolute number
# Method: as §1, with “For FIG. 12, after homogenisation of spleens and lysis of red blood cells, 5×10^5 splenocytes were cultured with 20 μg/ml PLA2 protein in 200 μl IMDM (Gibco) supplemented with L-glutamine (4 mM), FCS (10%), mercaptoethanol (75 μM), as well as streptomycin and ampicillin.” left out, “Cytokine concentrations in supernatants as determined by ELISA after subtraction of spontaneous cytokine secretion was determined upon in vitro stimulation with an irrelevant antigen (ovalbumin). Statistical differences between the different groups were indicated when significant (P<0.01). One representative out of two immunization experiments is shown.” left out
# PLA2-specific IgG = PLA2-specific IgG by ELISA after PLA2 plus titrated CpG; assay type: in vivo, CBA/J mice
# Method: The doses of CpG required to enhance Th1-dependent IgG immune responses against an allergen, and whether intralymphatic administration could reduce the required dose of CpG were evaluated. PLA2, the major allergen from bee venom, was used as a model allergen. CBA/J mice were immunized biweekly with […] ODN-1668pt together with 0.1 μg of PLA2 either intralymphatically (A) or subcutaneously (B). Three weeks after the third injection, sera of mice were collected and PLA2-specific IgG was determined by ELISA (FIG. 9). Values represent means and standard deviations obtained from three mice per group. One representative of two similar experiments is shown.
# [6] = system: EL-4 target cells pulsed with the ovalbumin peptide epitope; assay: direct ex vivo CTL activity, 51Cr-release assay after OVA plus CpG; assay type: in vivo, C57BL/6 mice; conditions: seven days later
# Method: The optimal intralymphatic dose of CpG for CTL induction was evaluated and compared to the optimal subcutaneous dose. C57BL/6 mice were injected with OVA alone or in combination with CpG ODN 1668pt. CD8 T cell responses were tested for direct ex vivo CTL activity seven days later using ^51Cr-release assays on EL-4 target cells pulsed with the ovalbumin peptide epitope (SEQ. ID. No. 2) at various effector to target cell ratios. Two dilution series of effector cells per mouse were performed. The means±SEM (n=3) are shown (see FIG. 4). […] The CTL activity was correlated with the frequency of CD8 lymphocytes staining positive for intracellular IFN-γ as measured by flow cytometry (data not shown).
# splenocyte = conditions: mouse, in vivo, sc
# Method: C57BL/6 mice were treated with different doses of CpG and euthanized 8 days later for analysis of the spleen. […] The means±SEM (n=3) are shown. […] The means±SEM (n=3) are shown.
# DCs = assay: activation of lymph node DCs, up-regulation of CD80 and CD86 (flow cytometry); assay type: in vivo, C57BL/6 mice
# Method: To assess CpG-induced activation of professional APCs, C57BL/6 mice received titrated amounts of CpG ODN 1668pt either subcutaneously by injection into the inguinal region or by direct injection into the inguinal lymph node. After one day the inguinal lymph nodes were collected and DCs were isolated by Collagenase D digestion and positive isolation using anti-CD11c magnetic beads. Activation of DCs was assessed by measuring up-regulation of CD80 and CD86 (FIGS. 3A and B). Values represent the mean fluorescence intensity (MFI) measured by flow cytometry. As control, mice were immunized i.ln. with saline solution. Lymph node cells pooled from three mice per group were used for the analysis. At least 1.5×10^4 CD11c^+ cells were acquired per condition. […] Note that an intralymphatic control injection with saline induced slight upregulation of CD80 and CD86. This may be explained by the physical lymph node damage produced by the needle. Thus, although both sites of injection are very close to each other, direct intralymphatic administration reduced the dose of CpG that is necessary for DC maturation by 10-50 fold.
substance,measurement,setting,value
"Melan-A peptide: Melan-A peptide (SEQ. ID. No. 3), A27L analogue of the A2-restricted Melan-A 26-35 epitope",immune response by tetramer staining,CD8+ T cell population,readily detectable response by tetramer staining; also recorded: not very effective in inducing a robust T cell population expansion
polyriboinosinic polyribocytidylic acid [polyI:C],IFN-γ secreted (ELISA),splenocytes; splenocytes cultured with PLA2,highest amounts of IFN-γ
same,cytotoxic response,[1],triggered a specific cytotoxic response
same,kinetics of the antibody production (time of maximum titers),[2],maximum levels of antibodies within three weeks of the final boost injection
same,"anti-PLA2 antibody isotypes induced (IgG2a, IgG1)",[2],high antibodies titers of both IgG1 and IgG2a isotypes
same,sero-conversion,[2],notable sero-conversion
same,immune response by tetramer staining,CD8+ T cell population,robust antigen specific response
same,"systemic acute phase reaction, mortality or morbidity at the dose used","CD8+ T cell population; intranodal, 0.1 nmole CpG ODN or 25 μg polyI:C",not associated with observed mortality or morbidity
same,in vivo lysis of human melanoma target cells in the lung,[3],substantial lytic activity
IL-12: co-stimulatory cytokine,patients died,[4],2 patients
same,patients hospitalized,[4],12 patients
peptidoglycan,kinetics of the antibody production (time of maximum titers),[2],peak titers were delayed
same,"anti-PLA2 antibody isotypes induced (IgG2a, IgG1)",[2],induced predominantly IgG2a
"CpG: phosphorothioate-modified CpG ODN 1826 (SEQ. ID. No. 10), TLR 9 ligand, Examples 8 and 9 (DNA TCCATGACGTTCCCTGACGTT; DNA, all phosphorothioate, methylation of C not given here)",IL-4 secretion,splenocytes; compared with 3M003 and PolyI:C (P<0.01) or LPS (P<0.05),significantly reduced IL-4 secretion
same,IL-10 production,splenocytes; splenocytes cultured with PLA2,the strongest IL-10 production
same,IFN-γ secreted (ELISA),splenocytes; splenocytes cultured with PLA2,highest amounts of IFN-γ
same,IFN-γ producing CD8-positive and CD4-positive T cells,[5],strongest effect
same,serum concentration of IgG1 relative to the titers induced by LPS or PolyI:C,"[2]; geometrically, 10 and 13 weeks",30-50%
same,kinetics of the antibody production (time of maximum titers),[2],a delay in the IgG1 antibody production
same,"anti-PLA2 antibody isotypes induced (IgG2a, IgG1)",[2],induced IgG2a
same,IgG1 in seven-week sera,[2]; seven weeks after initiating immunization,hardly detectable
same,sero-conversion,[2],notable sero-conversion
"CpG ODN 1668pt: CpG ODN 1668pt (SEQ. ID. No. 1), unmethylated CpG oligodeoxynucleotide, TLR9 ligand (DNA TCCATGACGTTCCTGAATAAT; DNA, backbone not given here)",PLA2-specific antibody responses,"PLA2-specific IgG; intralymphatic, high CpG dose of 10 nmol",no antibody responses were detectable
same,PLA2-specific antibody titers,"PLA2-specific IgG; intralymphatic, low CpG doses of 0.1 and 0.01 nmol",highest antibody titers
same,"PLA2-specific IgG, adjuvant effect","PLA2-specific IgG; subcutaneously, CpG 0.1 and 0.01 nmol",an adjuvant effect was no longer detectable
same,PLA2-specific IgG titers,"PLA2-specific IgG; subcutaneously, CpG doses of 10 and 1 nmol with 0.1 μg PLA2",highest IgG titers
same,CTL activity,[6]; subcutaneous vaccination with OVA plus CpG,did not elicit CTL activity
same,CTL activity,[6]; vaccinated intralymphatically with OVA plus CpG,significant induction of cytotoxic CD8 T cells even at 0.01 nmol CpG
same,changes of B lymphocytes in spleen,splenocyte,Only moderate changes
same,relative amounts of CD4 and CD8 T cells as well as NK cells,splenocyte,substantially reduced in a dose-dependent manner
same,expression of CD80 and CD86 on DCs,"DCs; 10 and 1 nmol, regardless of the route, after one day",significantly enhanced expression of CD80 and CD86
same,reduction of the dose of CpG necessary for DC maturation,DCs; direct intralymphatic versus subcutaneous administration,10-50 fold
same,DC maturation,"DCs; low CpG doses of 0.1 and 0.01 nmol, i.ln. versus s.c.",only direct injection into the inguinal lymph node induced significant DC maturation
